Values after ≈ are worked out from the molar mass of the structure shown. Like-named read-outs stand apart in the source and are kept apart here.
What was measured:
THP-1 cells = test: Example D: LPS-triggered THP-1 cell death assay, acute/5-hour and chronic/48-hour; assay type: cell-based, Human; details: for Viable cell percent change, Chronic/48-hour, Mean: 10 ng/ml LPS, 0.1 μM test compound
Description: Compounds of the invention were tested at 0.1 μM versus AC in the LPS-triggered THP-1 cell death assay. Both acute/5-hour and chronic/48-hour phases of cell death were assessed. Compounds were screened in batches with DMSO as the negative control and AC as the high activity control.

[1] = system: Cryptococcus neoformans (serotype D); test: Example K: Cryptococcus neoformans (serotype D) growth inhibition; assay type: cell-based; details: OD of 48 hour reading, 37° C., tested 4 to 60 μM, XLfit; for IC50: read-out: IC50 (concentration for 50% of inhibition)
Description: Cryptococcus neoformans (serotype D) were plated in 96 well plates with 144 μl/well of 8×10e5 CFU/ml in YM growth medium. Diluted compounds were then added to each well with concentration ranged from 4 to 60 μM as final concentration in duplicates. The plates were inoculated at 37° C. for total of 48 hours. Two readings of OD at 600 nm were measured after 30 and 48 hour treatments.
• 1. Pick a single colony of Cryptococcus from the YM agar plate using the inoculum loop and inoculate into a 125 ml flask containing 25 ml of YM growth medium. • 2. Incubate at 37° C. with shaking at 220 rpm for 24 hours with loosen lid to allow air in and facilitates growth. • 3. Examine an aliquot of the culture under a microscope for yeast cell morphology and lack of bacterial contamination. • 4. Dilute the overnight culture with YM medium at 1:100 dilution and count the number of cells as 1×10^6 cfu/ml. • 5. Make a final concentration of cells suspension at 8×10^5 cfu/ml in YM medium. • 6. Plate 144 μl/well of 8×10^5 cfu/ml cell suspension on 96-well plates. Part-II: Cryptococcus Growth Inhibition Testing with Compounds • 1. From 10 mM DMSO stock solutions, make serial dilutions of compounds to 0.1, 0.2, 0.3, 0.5, 1.0 and 1.5 mM solution. • 2. Add 6 ul each of diluted compound solutions per well in duplicates. The final concentrations were 0, 4, 8, 12, 20, 40 and 60 micromolar. • 3. Incubated all plates at 37° C. overnight (30 hours) with 150 rpm shaking. • 4. Read absorbance at OD600 for each plate. • 5. Leave plates in 37° C. incubator for another day and read absorbance at OD600 again at 48 hours to ensure the inhibitory effect of the compounds. • 6. Calculated the % inhibition and IC50 of each compound against untreated cells.

[2] = system: Cryptococcus neoformans (serotype A); test: Example L: Cryptococcus neoformans (serotype A) growth inhibition; assay type: cell-based; details: OD of 26 hour reading, 30° C., XLfit; for IC50: read-out: IC50, uM (concentration for 50% of inhibition)
Description: Cryptococcus neoformans (serotype A) were plated in 96 well plates with 144 μl/well of 5×10e5 CFU/ml in YPD growth medium. Diluted compounds were then added to each well with concentration ranged from 0.05 to 10 μM as final concentration in duplicates. The plates were inoculated at 30° C. Two readings of OD at 600 nm were measured after 18 hr and […] treatments.
C12-imidazol had relative weak activity against Cryptococcus serotype A at low concentration. Data plotted was based on 26 hour reading because 18 hour reading was too low.
• 1. Pick a single colony of Cryptococcus from the Sabouraud Dextrose agar plate using the inoculum loop and inoculate into a 125 ml flask containing 25 ml of YPD growth medium • 2. Incubate at 30° C. with shaking at 220 rpm for 24 hours with loosen lid to allow air in and facilitates growth. • 3. Examine an aliquot of the culture under a microscope for yeast cell morphology and lack of bacterial contamination. • 4. Dilute the overnight culture with YPD medium at 1:100 dilution and count the number of cells as 8×10^6 cfu/ml. • 5. Make a final concentration of cells suspension at 5×10^5 cfu/ml in YPD medium after the stock culture had been stored at 4° C. for 3 days. • 6. Plate 144 μl/well of 5×10^5 cfu/ml cell suspension on 96-well plates. Part-II: Cryptococcus Growth Inhibition Testing with Compounds • 1. From 10 mM DMSO stock solutions, make serial dilutions of compounds to 0.0013, 0.0025, 0.0125, 0.025, 0.05, 0.125 and 0.25 mM solution • 2. Add 6 ul each of diluted compound solutions per well in duplicates. The final concentrations were 0, 0.05, 0.1, 0.5, 1.0, 2.0, 5.0 and 10 micromolar. • 3. Incubated all plates at 30° C. overnight with 175 rpm shaking. • 4. Read absorbance at OD600 after 18 and 26 hours for each plate. • 5. Calculated the % inhibition and IC50 of each compound against the untreated cell.

[3] = system: 4T1 mouse mammary breast cancer cells; test: Example O: syngeneic 4T1 breast cancer growth in Balb/C mice; assay type: in vivo; details: 4T1 in female Balb/C mice
Description: Cancer models in mice generally either involve syngeneic murine tumors in immunocompetent mice or xenografts of human tumors in immunocompromised mice. […] Mice received test compounds by oral gavage in 1% hydroxypropylmethylcellulose from day 2 until day 30. Tumor growth was assessed by caliper measurements twice per week and tumor weight after necropsy, and body weight was also monitored. Treatment groups were: • 1. […] HPMC) • 2. CI (120 μmol/kg/day) • 3. BA (120 μmol/kg/day) • 4. CP (120 μmol/kg/day) • 5. CQ (120 μmol/kg/day) • 6. AA (120 μmol/kg/day) • 7. AC (120 μmol/kg/day)

[4] = system: 4T1 murine breast cancer cells; test: Example S: in vitro anticancer screen, 4T1 cells, Wst1; assay type: cell-based, mouse; details: Mus musculus, 4T1, 18 h
Procedure, shortened: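 Read-out is Wst1 absorbance (450 nm, reference 630 nm) after roughly 2 hr dye incubation, giving percent cell survival versus vehicle. Before that, compounds at 1 μM or 5 μM were applied for 18 hr to 4T1 cells plated at 1×10^4 per well.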

[5] = system: PC3 human prostate cancer cells; test: Example S: in vitro anticancer screen, PC-3 cells, Wst1; assay type: cell-based; details: Homo sapiens, PC-3, 20 h, read-out: PC-3, percent of cancer cell survival relative to vehicle treated cells
Procedure, shortened: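 Values give percent survival relative to vehicle, read by Wst1 absorbance (450/630 nm) after 2 h dye incubation, in triplicate. Cells were seeded at 2×10^4/well and treated about 20 h with compound at 0.4, 0.5 or 2.5 μM, depending on compound.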

[6] = system: PC-3 prostate cancer cells; test: Example T: sensitisation of PC-3 cells to doxorubicin, oxaliplatin, paclitaxel or vincristine, Wst1; assay type: cell-based, human
S. cerevisiae = test: Example I: Saccharomyces cerevisiae growth inhibition (OD 600 nm); assay type: cell-based; details: 18 hour incubation at 30° C., OD 600 nm, XLfit
Description: An overnight culture of S. cerevisiae was dilution in YPD broth to concentration of 40,000/ml and 150 μl/well was plated in 96 well plates. Compounds were then added to each well with concentration ranged from 4 to 50 μM as final concentration. The plates were inoculated at 30° C. overnight with shaking at 220 rpm and absorbance at 600 nm was read after 18 hour incubation.
• 1. One days prior to the inoculum preparation, pick a single colony of S. cerevisiae from the Sabouraud Dextrose Agar plate using the inoculum loop and inoculate into a 50 mL tube containing 10 ml of YPD growth medium • 2. Incubate at 30° C. with shaking at 220 rpm for 24 hours with loosen lid to allow air in and facilitates growth. • 3. Examine an aliquot of the culture under a microscope for yeast cell morphology and lack of bacterial contamination. • 4. Dilute the overnight culture with YPD medium at 1:30 dilution (70 ul to 2.1 ml) and count the number of cells as 4,230,000/ml. • 5. Mix 620 μl of 1:30 dilution and 64.4 ml YPD to make final concentration of 40,000/ml cells • 6. Plated 144 μl/well in four 96-well plates.
• 1. From 10 mM DMSO stock solutions, make serial dilutions of compounds to 0.1, 0.2, 0.3, 0.63 and 1.25 mM solutions • 2. Add 6 μl each of diluted compound solutions per well in duplicates. The final concentrations were 0, 4, 8, 12, 25 and 50 micromolar. • 3. Incubated all plates at 30 C for overnight (˜18 hours) with 220 rpm shaking. • 4. Read absorbance at OD600 for each plate on Spectra Max Plus plate reader. • 5. Calculate the % inhibition of each compound against the DMSO treated cell and plotted.

Trichophyton rubrum = test: Example J: Trichophyton rubrum growth inhibition, scoring by eye; assay type: cell-based; details: 6 days at 30° C., tested 6 to 40 μM; read-out: MIC, μM (maximum inhibition concentration, scoring by eye)
Description: Trichophyton grown on two agar plates were collected by scraping into 10 ml saline and filtered through 8 μm filters. […] This experiment included some active compounds from previous experiment and added several untested compounds. […] Following table listed the maximum inhibition concentration (MIC) based on scoring by eye. Scrape frozen Trichophyton culture from ATCC vial and suspended in 100 μl PDB, and then plate on a PDA plate. Incubate plate at 30 C for 4 days. The plate was covered almost full. […] Take OD of collected solution at 520 nm and 600 nm: […] Part-II: […] Add 6 μl each of diluted compound solutions per well in triplicates. […] Wrap the plates with […] incubate all plates at 30° C. for 6 days. • Take picture of the plates on KODAK imager with 17 captures of 1.5 sec/capture for total of 25.5 second exposure.

## CCCCCCCCCCOc1ccc(CNc2ncnc3ccccc23)cc1 [BN, N-[4-(Decyloxy)benzyl]quinazolin-4-amine]
THP-1 cells
  Viable cell percent change, Chronic/48-hour, Mean: 60.91%
[1]; Cryptococcus deneoformans
  IC50: 1.03 µM
[2]; Cryptococcus neoformans
  IC50: 3.73 µM
[2]; Cryptococcus neoformans, read-out: MIC, uM (concentration for maximum - 99% of inhibition)
  MIC: 56.1 µM (≈ 22 µg/mL)

## CCCCOCCCCCCCCNc1ccnc2ccccc12 [CI, N-(8-Butoxyoctyl)quinolin-4-amine]
THP-1 cells
  Viable cell percent change, Chronic/48-hour, Mean: 28.46%
THP-1 cells; 0.1 μM, 5-hour and 48-hour time points
  activity relative to AC in the LPS-triggered THP-1 cell death assay, in words: equivalent activity to AC at both the 5-hour and 48-hour time points
[3]; 120 μmol/kg/day oral gavage, day 2 to day 30
  Final Tumor Volume: 702 ± 244 mm^3
[3]; 120 μmol/kg/day oral, final vs initial body weight
  Δ BW %: −5.5%
[3]; 120 μmol/kg/day oral, final, in g (unit assumed)
  Final Body Weight: 20.6 ± 0.6
[3]; 120 μmol/kg/day oral, initial (baseline)
  Initial Body Weight: 21.8 ± 0.8 g
[4]; read-out: 4T1 1 μM, percent of cancer cell survival relative to vehicle treated cells
  viability at 1 µM: 28.3%
[4]; read-out: 4T1 5 μM, percent of cancer cell survival relative to vehicle treated cells
  viability at 5 µM: 19.1%
[5]
  viability at 0.4 µM: 77.9%
[6]; Homo sapiens, PC-3, 72 h, read-out: No Chemo: percent cell survival
  viability at 0.4 µM: 77.9%
[6]; PC-3 cells, compound 0.4 μM + doxorubicin 3.5 μM, 72 hours, chemotherapy agent alone normalized to 100%
  Doxorubicin 3.5 μM: percent cell survival: 67.6%
[6]; PC-3 cells, compound 0.4 μM + oxaliplatin 100 μM, 72 hours, chemotherapy agent alone normalized to 100%
  Oxaliplatin 100 μM: percent cell survival: 21.8%
[6]; PC-3 cells, compound 0.4 μM + paclitaxel 50 μM, 72 hours, chemotherapy agent alone normalized to 100%
  Paclitaxel 50 μM: percent cell survival: 48.7%
[6]; PC-3 cells, compound 0.4 μM + vincristine 100 nM, 72 hours, chemotherapy agent alone normalized to 100%
  Vincristine 100 nM: percent cell survival: 33.8%

## CCCCCCCCCCCCn1ccnc1 [Compound C12-Im, reference compound]
S. cerevisiae
  MIC, uM (99% of inhibition of fungal growth): 29.04 µM
S. cerevisiae; read-out: IC50, uM (50% inhibition of fungal growth)
  IC50: 15.2 µM
Trichophyton rubrum
  MIC: 18 µM (≈ 4.26 µg/mL)
[1]
  MIC (concentration for maximum-99% of inhibition): 20.54
  IC50: 1.81 µM
[2]
  MIC, uM (concentration for maximum - 99% of inhibition): 10.83 µM
  IC50: 3.67 µM

Source: patent publication US20250034139A1, “AMINE COMPOUNDS HAVING ANTI-INFLAMMATORY, ANTIFUNGAL, ANTIPARASITIC, AND ANTICANCER ACTIVITY” (PHARMA CINQ, LLC, priority 2013, published 2025)
